What was measured:
[1] = tested on: insulin receptor (IRβ) phosphorylation in HepG2 cells; assay: Insulin receptor phosphorylation in HepG2 cells (western blot); type: cell-based, human
Experimental: The insulin mimetic/sensitizing activity of compound 4f was evaluated on both HepG2 and C2C12 cells. Starved HepG2 and C2C12 cells were incubated in the presence of compound 4f (25 μM) for 90 min and after stimulated or not with insulin (10 nM). Then, cells extracts were analysed to evaluate phosphorylation levels of the insulin receptor.
HepG2 and differentiated C2C12 cells were starved for 24 h and then incubated in the presence of compound 4f (25 μM, final concentration) for 90 min. After this time, cells were washed with PBS and then stimulated or not with 10 nM insulin for 30 min. Then, cells were lysed and cellular proteins separated on a 12% SDS-PAGE. After electrophoresis, cellular proteins were transferred on a PVDF membrane by western blot technique and then probed against antibodies able to specifically recognize insulin receptor (I2033 Sigma Aldrich) or phosphorylated form of IR (MABS65, Sigma-Aldrich). Sample loading was evaluated probing PVDF membrane with anti-actin antibodies (ABT1485 Sigma Aldrich).

[2] = target: T1, human recombinant AR (Homo sapiens, UniProt P15121); assay: Reversibility of AR inhibition (dialysis); type: biochemical
T1 construct: made in house; host or cells: E. coli BL21(DE3)pLysS
Experimental: In order to evaluate the reversibility of the inhibitory action, 8 mU of purified AR were assayed in the presence of 5 μM of compounds 4a, 4e and 4f. In these conditions less than 15% of the enzyme activity was measured in the presence of 2 mM L-idose as substrate. The mixture was then extensively dialysed on Amicon ultrafiltration membrane (cut off 10 KDa) against 10 mM sodium phosphate buffer, pH 7.0. After dialysis, the enzyme activity was again measured as above and compared to that of a mixture in the absence of inhibitor and treated in the same conditions.

[3] = target: T2, human recombinant PTP1B (Homo sapiens, UniProt P18031); assay: Inhibition of human recombinant PTP1B, p-nitrophenyl phosphate as substrate; type: biochemical; conditions: human recombinant PTP1B, pNPP as substrate; mean ± S.E.M
T2 sequence (P18031 1-435): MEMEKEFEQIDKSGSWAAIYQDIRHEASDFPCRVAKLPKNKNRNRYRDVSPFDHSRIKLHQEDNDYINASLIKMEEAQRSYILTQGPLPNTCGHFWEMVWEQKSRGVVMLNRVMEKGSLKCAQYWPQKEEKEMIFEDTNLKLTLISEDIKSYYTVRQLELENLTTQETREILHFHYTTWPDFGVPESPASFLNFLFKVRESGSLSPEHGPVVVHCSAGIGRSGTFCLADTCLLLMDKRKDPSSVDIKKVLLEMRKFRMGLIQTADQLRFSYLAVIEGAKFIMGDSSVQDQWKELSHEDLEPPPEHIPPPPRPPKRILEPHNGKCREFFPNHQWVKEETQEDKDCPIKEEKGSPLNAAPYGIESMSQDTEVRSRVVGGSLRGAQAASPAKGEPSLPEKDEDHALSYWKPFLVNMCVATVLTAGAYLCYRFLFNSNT
Experimental: PTP1B activity was determined as follow. […] After an appropriate interval time, the reaction was stopped diluting assay solution with 2 mL of KOH 0.1 M. The amount of p-nitrophenol released was determined measuring the absorbance of the solution at 400 nm using a spectrophotometer and a 1-cm optical pathlength (εmM of p-nitrophenol is 18). The IC50 value was determined measuring the pNPP hydrolysis rate in the presence of increasing inhibitor concentration. For each inhibitor, 15–16 different concentrations were used. All tests were carried out in triplicate and data obtained were normalized respect to control sample.

[4] = target: T1, human recombinant AR; assay: Kinetic analysis of AR inhibition (Lineweaver-Burk and secondary plots); type: biochemical
Experimental: The kinetic analysis of compounds 4a, 4e and 4f was performed by measuring reaction rates with different L-idose concentrations s (S) in the absence and in the presence of different inhibitors concentrations. Data were analyzed by Linewever-Burk plots.

[5] = target: T2, human recombinant PTP1B; assay: Reversibility assay (dilution test) with PTP1B; type: biochemical; conditions: saturating inhibitor, 60 min 37 °C, diluted 400 folds
Experimental: An aliquot of the enzyme was incubated for 60 min at 37 °C in the presence of saturating amount of PTP1B inhibitor. After this time, an aliquot of the enzyme was withdrawn and diluted 400 folds in the assay buffer containing 2.5 mM of pNPP. After 15 min, the reaction was stopped by adding 1 mL of KOH 0.2 M. The amount of pNP released was calculating measuring the absorbance at 400 nm of solutions using a spectrophotometer. Data obtained were normalized respect to control tests, which was carried out diluting the enzyme with DMSO, the solvent used to dissolve all compounds. Data reported in the figure represent the mean value +/− S.E.M. (n = 3).

[6] = target: T1, human recombinant AR; assay: Inhibition of human recombinant AR, L-idose as substrate (NADPH oxidation at 340 nm); type: biochemical; conditions: human recombinant AR, 2 mM L-idose as substrate; mean ± S.E.M
Experimental: The human recombinant AR was expressed in BL21(DE3)pLysS E. coli cells and purified to electrophoretic homogeneity as previously described. The purified enzyme (specific activity 5.0 U/mg) was stored at −80 °C in 10 mM sodium phosphate buffer pH 7.0 containing 2 mM dithiothreitol and 30% (w/v) glycerol. AR activity was determined at 37 °C as previously described evaluating the decrease in absorbance at 340 nm linked to NADPH oxidation. […] One unit of enzyme activity is the amount that catalyzes the conversion of 1 μmol of substrate/min in the above assay conditions.
All compounds tested as aldose reductase inhibitors were dissolved in DMSO and added to the assay mixture containing 8 mU of purified AR. The reaction was started by addition of the substrate. The DMSO concentration in all the assays was kept constant at 0.5% (v/v) in order to avoid effects on AR activity.
The IC50 values were determined by nonlinear regression analysis using Prism GraphPad 6.0 fitting experimental data to the following equation:(1) vi/v0= Max−Min/1+( I/IC50)^slope +Min
In the equation, vi/v0, represents the ratio between the activity measured in the presence of the inhibitor and the activity measured in the absence of inhibitor; Max and Min represent the expected maximal and minimal value of the activity and were fixed at 1 and zero, respectively. Slope, which describes the steepness of curve in the transition region, was fixed at −1. For each compound, at least five different concentrations of inhibitor in the triplicate assay were analyzed.

AR enzyme activity recovered after removal of the inhibitor upon extensive dialysis ([2]; 5 μM compound before dialysis): more than 90% | AR enzyme activity measured in the presence of compound ([2]; 5 μM compound, 2 mM L-idose, before dialysis): less than 15% | IC50 [3]: 12.7 ± 0.3 µM | AR Ki relative to K′i ([4]; Ki higher than K′i): at least ten-fold higher | AR K′i (apparent dissociation constant, EIS complex) ([4]; L-idose as substrate): 2.9 ± 0.12 µM | Mechanism of AR inhibition ([4]; L-idose as substrate): uncompetitive inhibitors | Ki ([4]; L-idose as substrate, read-out: AR Ki (apparent dissociation constant)): > 30 µM | Reversibility of PTP1B inhibition [5]: reversible inhibitors | IC50 [6]: 5.3 ± 0.4 µM
SMILES: O=C(O)CCN1C(=O)/C(=C/c2ccc(OCCc3ccccc3)cc2)SC1=S [4f, 3-[(5Z)-4-Oxo-{5-[4-(2-phenylethoxy)phenyl]methylidene}-2-thioxothiazolidin-3-yl]propanoic acid]
Increase of IRβ phosphorylation level after stimulation with insulin ([1]; HepG2, 25 μM for 90 min, then 10 nM insulin 30 min, control cells 39%): 260% | Effect on basal phosphorylation levels of IRβ ([1]; HepG2, 25 μM, 90 min, no insulin): marked reduction

From article PMC7828111, “In Search for Multi-Target Ligands as Potential Agents for Diabetes Mellitus and Its Complications—A Structure-Activity Relationship Study on Inhibitors of Aldose Reductase and Protein Tyrosine Phosphatase 1B” (Molecules, 2021)
